# Laboratory results as given in US20100004333A1, “COMPOSITIONS AND METHODS FOR TREATING CARDIOVASCULAR DISORDERS” (priority 2004, published 2010).
# Marks after values point to notes of the source that are not given here.
# Experiments:
# [1] = versus 10.8 for octanol; cited from earlier work
# [2] = mouse, in vivo
# Description: The quantity of probucol, BP, and DPQ in aortic homogenates was determined by gradient reverse-phase high-pressure liquid chromatography (HPLC) as described in FASEB Journal 1999, 13:667-675.
# apoE−/− mice = experiment: Aortic biochemistry (non-oxidized lipids, α-tocopherol, oxidized lipids) in aortic segments of apoE−/− mice; assay type: in vivo; conditions: 1% probucol, 24 weeks, mean ± SD; for Lipids: C: 4 pools; for Oxidized lipids: F2-isoprostanes / Oxidized lipids: F2-isoprostanes per arachidonate: ten sections
# Source text: Male C57BL/6J mice, homozygous for the disrupted apoE gene (apoE−/−) and originally purchased from Jackson Laboratories (Bar Harbor, Me.), were used at 8-10 weeks of age and then fed for 24 weeks ad libitum a high fat diet containing 21.2 (w/w) fat and 0.15% (w/w) cholesterol (specifications of the Harlan Teklad diet TD88137), without (controls, 103 mice) or with probucol (1% w/w, 87 mice), as described in Arteriosclerosis Thrombosis and Vascular Biology 2000, 20:e26-e33. The local animal ethics committee approved the study.
# Procedures were carried out as described in Arteriosclerosis Thrombosis and Vascular Biology 2000, 20:e26-e33. For biochemistry, hearts and aortas past the femoral bifurcation were excised carefully (n=86 and 70 for control and probucol animals, respectively), cleaned, placed immediately in ice-cold buffer containing protease inhibitors and antibiotics, and then stored at −80° C. For histology, separate mice (n=17 each, for controls and probucol) were perfusion fixed, the hearts and aortas dissected and processed for blinded morphometry at the sinus, arch and descending thoracic and abdominal aorta, precisely as described in Arteriosclerosis Thrombosis and Vascular Biology 2000, 20:e26-e33. Mean areas from thoracic and abdominal aortas were similar and therefore combined and presented as a single value. For histology, sections at the sinus were taken ˜200 μm from the first appearance of the leaflets. Sections at the thoracic and abdominal aorta were taken at the branch point of the 3rd pair of intra-costal arteries and the celiac artery, respectively.
# For F2-isoprostanes, the thawed aortic segment (≈20 mg wet weight) was blotted dry, weighed and F2-isoprostanes analyzed by electron capture negative ionization GC/MS after solid-phase extraction and HPLC purification as described in Analytical Biochemistry 1999, 268:117-125, using [D4]-8-iso-prostaglandin F2α (Cayman Chemical) as internal standard. For arachidonate, phospholipids were separated by thin-layer chromatography, the fatty acid methyl esters then prepared and analyzed by GLC, as described in American Journal of Clinical Nutrition 2000, 71:1085-1094.
# For other analytes, pooled aortic segments were homogenized and extracted as described in Journal of Lipid Research 1999, 40:1104-1112, and the organic phase analysed by HPLC with electrochemical (for α-tocopherol), UV (C and CE) and post-column chemiluminescence detection (CE-OOH) as described in Methods in Enzymology 1999, 299:362-375. CE-OOH were measured as a marker of primary lipoprotein lipid peroxidation as they are the primary and major lipid oxidation products formed in lipoproteins from apoE−/− mice undergoing oxidation in the presence of α-tocopherol. For total cholesterol and 7KC, separate 10 μL and 100 μL aliquots, respectively, of the re-dissolved organic extracts were saponified, and subjected to HPLC as described in Journal of Lipid Research 1997, 38:1730-1745. For 7KC, a silica column (0.46×15 cm, 120 Å, 5 μm, Supelco) with guard column (3 μm particle size) was eluted with hexane/isopropylalcohol/acetonitrile (94.8:4.6:0.6 v/v/v) at 1.0 mL/min and monitored at 234 nm. For all chromatographic analyses, compounds were quantified by area comparison using authentic standards.
smiles,measurement,setting,value
CC(C)(Sc1cc(C(C)(C)C)c(O)c(C(C)(C)C)c1)Sc1cc(C(C)(C)C)c(O)c(C(C)(C)C)c1 [probucol],Partition coefficient between octanol and water,[1],10
same,Metabolites (BP and DPQ) relative to parent drug,[2],nearly one third of the drug
same,Antioxidants: α-Tocopherol,apoE−/− mice; Arch,1.6 ± 0.3^a nmol/mgp
same,Lipids: C18:2,apoE−/− mice; Arch,33 ± 9^a nmol/mgp
same,Lipids: C20:4,apoE−/− mice; Arch,17 ± 3^a nmol/mgp
same,Oxidized lipids: 7KC,apoE−/− mice; Arch,0.20 ± 0.11 pmol/mgp
same,Oxidized lipids: 7KC/total cholesterol,apoE−/− mice; Arch,0.25 ± 0.20 mmol/mol
same,Oxidized lipids: CE-OOH,apoE−/− mice; Arch,143.8 ± 118.7 pmol/mgp
same,Oxidized lipids: CE-OOH/CE,apoE−/− mice; Arch,2.70 ± 2.04 mmol/mol
same,Lipids: C,apoE−/− mice; Arch,447 ± 71^a nmol/mgp
same,Oxidized lipids: F2-isoprostanes,apoE−/− mice; Arch,0.35 ± 0.11 pmol/mgp
same,Oxidized lipids: F2-isoprostanes per arachidonate,apoE−/− mice; Arch,10.4 ± 3.6 μmol/mol arachidonate
same,Antioxidants: α-Tocopherol,apoE−/− mice; Sinus,3.0 ± 1.2 nmol/mgp
same,Lipids: C18:2,apoE−/− mice; Sinus,61 ± 11 nmol/mgp
same,Lipids: C20:4,apoE−/− mice; Sinus,33 ± 6 nmol/mgp
same,Oxidized lipids: 7KC,apoE−/− mice; Sinus,0.21 ± 0.11 pmol/mgp
same,Oxidized lipids: 7KC/total cholesterol,apoE−/− mice; Sinus,0.16 ± 0.06 mmol/mol
same,Oxidized lipids: CE-OOH,apoE−/− mice; Sinus,88.1 ± 26.6 pmol/mgp
same,Oxidized lipids: CE-OOH/CE,apoE−/− mice; Sinus,0.93 ± 0.12 mmol/mol
same,Lipids: C,apoE−/− mice; Sinus,928 ± 144 nmol/mgp
same,Oxidized lipids: F2-isoprostanes,apoE−/− mice; Sinus,0.39 ± 0.11 pmol/mgp
same,Oxidized lipids: F2-isoprostanes per arachidonate,apoE−/− mice; Sinus,8.6 ± 4.8 μmol/mol arachidonate
same,Antioxidants: α-Tocopherol,apoE−/− mice; Thoracic/Abdominal,1.2 ± 0.2^a nmol/mgp
same,Lipids: C18:2,apoE−/− mice; Thoracic/Abdominal,"10 ± 5^a,b nmol/mgp"
same,Lipids: C20:4,apoE−/− mice; Thoracic/Abdominal,"5.0 ± 1.4^a,b nmol/mgp"
same,Oxidized lipids: 7KC,apoE−/− mice; Thoracic/Abdominal,0.10 ± 0.04 pmol/mgp
same,Oxidized lipids: 7KC/total cholesterol,apoE−/− mice; Thoracic/Abdominal,0.08 ± 0.02 mmol/mol
same,Oxidized lipids: CE-OOH,apoE−/− mice; Thoracic/Abdominal,20.3 ± 8.1 pmol/mgp
same,Oxidized lipids: CE-OOH/CE,apoE−/− mice; Thoracic/Abdominal,1.46 ± 0.72 mmol/mol
same,Lipids: C,apoE−/− mice; Thoracic/Abdominal,215 ± 55^a nmol/mgp
same,Oxidized lipids: F2-isoprostanes,apoE−/− mice; Thoracic/Abdominal,"0.14 ± 0.04^a,b pmol/mgp"
same,Oxidized lipids: F2-isoprostanes per arachidonate,apoE−/− mice; Thoracic/Abdominal,"3.8 ± 1.4^a,b μmol/mol arachidonate"
